This is an account of results in patent US10766869B2, “Triazoles for the treatment of demyelinating dieases” (Vertex Pharmaceuticals Incorporated, priority 2015, dated 2020).

Read-outs that look alike come from different tables or passages of the source.

This assay deals with primary rat mixed cortical cells. Briefly: In vitro myelination assay (MBP positive myelin strands, fold myelin pixels above background). Type of assay: cell-based. The settings on record: Rattus norvegicus; for fold induction at 1 µM: 1.0 μM compound; for fold induction at 10 µM: 10.0 μM compound. In outline: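 Mixed cortical culture, P1 rat, 87,500-95,000 cells/well; compound present from seeding, refreshed days 6 and 10; 14 d, 37 °C, 5% CO2. Day 14: PFA fix, anti-MBP + Hoechst. Read-out: fold MBP myelin pixels over untreated, tested at 1.0 and 10.0 μM.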

Where [1] appears, read: relative to baseline of no added compound, read-out: Fold myelin pixels above background.
The mark [2] stands for this setting: read-out: Fold myelin pixels above background relative to baseline of no added compound.
Where [3] appears, read: relative to baseline of no added compound, read-out: Fold myelin pixels above background, 1.0 μM.
Where [4] appears, read: relative to baseline of no added compound, read-out: Fold myelin pixels above background, 10.0 μM.

In the case of `Cc1cc(Nc2ncn(-c3ccccc3)n2)cc(N2CCC(F)CC2)n1` [Compound 430, 2-(4-fluoro-1-piperidyl)-6-methyl-N-(1-phenyl-1,2,4-triazol-3-yl)pyridin-4-amine], under setting [1], the fold induction at 1 µM is 100 to 1000 and the fold induction at 10 µM is ≤ 1.

Turning to `COC1CCN(c2cc(C)cc(Nc3ncn(-c4cc(F)cc(F)c4)n3)c2)CC1` [Compound 1006, 1-(3,5-difluorophenyl)-N-[3-(4-methoxy-1-piperidyl)-5-methyl-phenyl]-1,2,4-triazol-3-amine], under setting [2], the fold induction at 1 µM is 10 to 100 and the fold induction at 10 µM lay within 1 to 10.

For the molecule `COCCNc1cc(F)cc(-n2cnc(Nc3cc(C)cc(N4CC(F)C4)c3)n2)c1` [Compound 766, N-[3-(3-fluoroazetidin-1-yl)-5-methyl-phenyl]-1-[3-fluoro-5-(2-methoxyethylamino)phenyl]-1,2,4-triazol-3-amine], under setting [1], the fold induction at 1 µM fell in the range of 1 to 10 and the fold induction at 10 µM is ≤ 1.

On to `COc1ccc(-n2cnc(Nc3cc(C)cc(N4CCN(C5COC5)CC4)c3)n2)cc1` [Compound 710, 1-(4-methoxyphenyl)-N-[3-methyl-5-[4-(oxetan-3-yl)piperazin-1-yl]phenyl]-1,2,4-triazol-3-amine], for which, under setting [1], the fold induction at 1 µM lay within 10 to 100 and the fold induction at 10 µM is ≤ 1.

On to `Fc1cc(F)cc(-n2cnc(Nc3cc(N4CCN(C5COC5)CC4)cc(C(F)(F)F)c3)n2)c1` [Compound 130, 1-(3,5-difluorophenyl)-N-[3-[4-(oxetan-3-yl)piperazin-1-yl]-5-(trifluoromethyl)phenyl]-1,2,4-triazol-3-amine], for which the fold induction at 1 µM under setting [3] was in the range of 1000 to 10000. Moreover, the fold induction at 10 µM under setting [4] was in the range of 100 to 1000.

With `CC(=O)N[C@H]1C[C@H](Oc2cc(C)cc(Nc3ncn(-c4cc(F)cc(F)c4)n3)c2)C1` [Compound 813, N-[3-[3-[[1-(3,5-difluorophenyl)-1,2,4-triazol-3-yl]amino]-5-methyl-phenoxy]cyclobutyl]acetamide], under setting [2], the fold induction at 1 µM is 10 to 100 and the fold induction at 10 µM was in the range of 1 to 10.

For `Cc1cc(Nc2ncn(-c3cc(F)cc(F)c3)n2)c(F)c(OC2CCOC2)c1` (single isomer, unassigned) [Compound 1028, 1-(3,5-difluorophenyl)-N-(2-fluoro-5-methyl-3-tetrahydrofuran-3-yloxy-phenyl)-1,2,4-triazol-3-amine], under setting [2], the fold induction at 1 µM lay within 10 to 100 and the fold induction at 10 µM lay in the range of 1 to 10.

On to `Cc1cc(Nc2ncn(-c3cc(F)cc(F)c3)n2)cc(N2CCN(C)C(CO)C2)c1` (stereo not drawn) [Compound 53, [4-[3-[[1-(3,5-difluorophenyl)-1,2,4-triazol-3-yl]amino]-5-methyl-phenyl]-1-methyl-piperazin-2-yl]methanol], for which the fold induction at 1 µM under setting [3] was in the range of 10 to 100. For the same molecule, under setting [4], the fold induction at 10 µM is ≤ 1.

With `Fc1cc(F)cc(-n2cnc(Nc3cc(C(F)(F)F)cc(N4CCNCC4)n3)n2)c1` [Compound 556, N-[1-(3,5-difluorophenyl)-1,2,4-triazol-3-yl]-6-piperazin-1-yl-4-(trifluoromethyl)pyridin-2-amine], under setting [1], the fold induction at 1 µM was in the range of 1 to 10 and the fold induction at 10 µM lay within 1 to 10.

As to `Cc1cc(Nc2ncn(-c3cc(F)cc(F)c3)n2)cc(N2CCC(F)CC2)n1` [Compound 457, N-[1-(3,5-difluorophenyl)-1,2,4-triazol-3-yl]-2-(4-fluoro-1-piperidyl)-6-methyl-pyridin-4-amine], under setting [1], the fold induction at 1 µM is 1000 to 10000 and the fold induction at 10 µM lay within 1000 to 10000.

On to `Fc1cc(Nc2ncn(-c3ccnc(F)c3)n2)cc(N2CCN(C3COC3)CC2)c1` [Compound 783, N-[3-fluoro-5-[4-(oxetan-3-yl)piperazin-1-yl]phenyl]-1-(2-fluoro-4-pyridyl)-1,2,4-triazol-3-amine], for which, under setting [1], the fold induction at 1 µM is ≤ 1 and the fold induction at 10 µM lay within 1 to 10.

With `Fc1cc(Nc2ncn(-c3ccc(C(F)(F)F)cc3)n2)cc(N2CCCC2)c1` [Compound 441, N-(3-fluoro-5-pyrrolidin-1-yl-phenyl)-1-[4-(trifluoromethyl)phenyl]-1,2,4-triazol-3-amine], under setting [1], the fold induction at 1 µM was 1 to 10 and the fold induction at 10 µM was ≤ 1.

For the molecule `Cc1cc(CN2CCN(C3COC3)CC2)c(F)c(Nc2ncn(-c3ccc(F)c(F)c3)n2)c1` [Compound 834, 1-(3,4-difluorophenyl)-N-[2-fluoro-5-methyl-3-[[4-(oxetan-3-yl)piperazin-1-yl]methyl]phenyl]-1,2,4-triazol-3-amine], under setting [2], the fold induction at 1 µM lay within 1 to 10 and the fold induction at 10 µM is 1 to 10.

`Fc1ccc(-n2cnc(Nc3cc(C(F)(F)F)cc(N4CCOCC4)n3)n2)cc1F` [Compound 770, N-[1-(3,4-difluorophenyl)-1,2,4-triazol-3-yl]-6-morpholino-4-(trifluoromethyl)pyridin-2-amine]: under setting [1], the fold induction at 1 µM was 10 to 100 and the fold induction at 10 µM is 10 to 100.

Regarding `CCN1CCN(C2CCN(c3cc(C)cc(Nc4ncn(-c5cc(F)cc(F)c5)n4)c3)CC2)CC1` [Compound 1025, 1-(3,5-difluorophenyl)-N-[3-[4-(4-ethylpiperazin-1-yl)-1-piperidyl]-5-methyl-phenyl]-1,2,4-triazol-3-amine], under setting [2], the fold induction at 1 µM lay in the range of 1 to 10 and the fold induction at 10 µM lay within 10 to 100.

As to `Cc1cc(Nc2ncn(-c3cc(F)cc(F)c3)n2)cc(N2CCN(C(=O)N3CCOCC3)CC2)c1` [Compound 582, [4-[3-[[1-(3,5-difluorophenyl)-1,2,4-triazol-3-yl]amino]-5-methyl-phenyl]piperazin-1-yl]-morpholino-methanone], under setting [1], the fold induction at 1 µM lay in the range of 1 to 10 and the fold induction at 10 µM lay within 10 to 100.

Regarding `Cc1cc(Nc2ncn(-c3cc(F)cc(F)c3)n2)nc(C2=CCNCC2)c1` [Compound 631, N-[1-(3,5-difluorophenyl)-1,2,4-triazol-3-yl]-4-methyl-6-(1,2,3,6-tetrahydropyridin-4-yl)pyridin-2-amine], under setting [1], the fold induction at 1 µM lay in the range of 1 to 10 and the fold induction at 10 µM lay in the range of 1 to 10.

For the molecule `Cc1cc(Nc2ncn(-c3cc(C)ncn3)n2)cc(N2CCN(C3COC3)CC2)c1` [Compound 111, N-[3-methyl-5-[4-(oxetan-3-yl)piperazin-1-yl]phenyl]-1-(6-methylpyrimidin-4-yl)-1,2,4-triazol-3-amine], the fold induction at 1 µM under setting [3] lay within 10 to 100. Besides, the fold induction at 10 µM under setting [4] was 100 to 1000.

For `Cc1cc(Nc2ncn(-c3cc(F)cc(F)c3)n2)cc(N2CCN(C3CCN(C)CC3)C(C)C2)c1` (stereo not drawn) [Compound 925, 1-(3,5-difluorophenyl)-N-[3-methyl-5-[3-methyl-4-(1-methyl-4-piperidyl)piperazin-1-yl]phenyl]-1,2,4-triazol-3-amine], under setting [2], the fold induction at 1 µM lay in the range of 1 to 10 and the fold induction at 10 µM was ≤ 1.

In the case of `COc1c(C)cc(N2CCN(C3COC3)CC2)cc1Nc1ncn(-c2cnccn2)n1` [Compound 471, N-[2-methoxy-3-methyl-5-[4-(oxetan-3-yl)piperazin-1-yl]phenyl]-1-pyrazin-2-yl-1,2,4-triazol-3-amine], under setting [1], the fold induction at 1 µM was 1 to 10 and the fold induction at 10 µM is ≤ 1.

Take `Cc1c(Nc2ncn(-c3ccccn3)n2)cc(N2CC(N3CCOCC3)C2)cc1OC(C)C` [Compound 811, N-[3-isopropoxy-2-methyl-5-(3-morpholinoazetidin-1-yl)phenyl]-1-(2-pyridyl)-1,2,4-triazol-3-amine]: under setting [2], the fold induction at 1 µM was in the range of 1 to 10 and the fold induction at 10 µM was in the range of 10 to 100.

On to `COCC1CCN(c2cc(C)cc(Nc3ncn(-c4cc(F)cc(F)c4)n3)n2)CC1` [Compound 619, N-[1-(3,5-difluorophenyl)-1,2,4-triazol-3-yl]-6-[4-(methoxymethyl)-1-piperidyl]-4-methyl-pyridin-2-amine], for which, under setting [1], the fold induction at 1 µM lay in the range of 1 to 10 and the fold induction at 10 µM lay in the range of 1 to 10.

As to `Cc1cc(NC2CCOC2)cc(Nc2ncn(-c3cc(F)cc(F)c3)n2)c1F` (stereo not drawn) [Compound 953, N3-[1-(3,5-difluorophenyl)-1,2,4-triazol-3-yl]-4-fluoro-5-methyl-N1-tetrahydrofuran-3-yl-benzene-1,3-diamine], under setting [2], the fold induction at 1 µM was in the range of 1 to 10 and the fold induction at 10 µM lay in the range of 1 to 10.

For `Fc1cc(Nc2ncn(-c3ccc(F)c(F)c3)n2)cc(N2CCCC2)c1` [Compound 99, 1-(3,4-difluorophenyl)-N-(3-fluoro-5-pyrrolidin-1-yl-phenyl)-1,2,4-triazol-3-amine], the fold induction at 1 µM under setting [3] was ≤ 1. In addition, under setting [4], the fold induction at 10 µM was ≤ 1.

`CCc1cc(Nc2ncn(-c3ccc(C)c(F)c3)n2)cc(N2CCN(C3COC3)CC2)c1` [Compound 761, N-[3-ethyl-5-[4-(oxetan-3-yl)piperazin-1-yl]phenyl]-1-(3-fluoro-4-methyl-phenyl)-1,2,4-triazol-3-amine]: under setting [1], the fold induction at 1 µM was in the range of 1 to 10 and the fold induction at 10 µM was ≤ 1.

Take `Fc1cc(F)cc(-n2cnc(Nc3cc(C(F)(F)F)cc(N4CCN(C5COC5)CC4)n3)n2)c1` [Compound 540, N-[1-(3,5-difluorophenyl)-1,2,4-triazol-3-yl]-6-[4-(oxetan-3-yl)piperazin-1-yl]-4-(trifluoromethyl)pyridin-2-amine]: under setting [1], the fold induction at 1 µM was in the range of 10 to 100 and the fold induction at 10 µM lay in the range of 100 to 1000.

In the case of `Cc1cc(Nc2ncn(-c3cc(F)cc(F)c3)n2)cc([C@H]2CN(C3COC3)CCO2)c1` (single isomer, unassigned) [Compound 623], under setting [1], the fold induction at 1 µM lay in the range of 10 to 100 and the fold induction at 10 µM is 1 to 10.
